In patent publication EP1118615A1, “NOVEL SALTS OF PYRIDOPYRAZINE COMPOUND AND CRYSTALS THEREOF” (FUJISAWA PHARMACEUTICAL CO., LTD., priority 1998, dated 2000):

How the values were obtained:
[1] = test system: IL-2; experiment: (A3) Anti-CD3/CD28 antibody-stimulated cytokine production inhibitory activity in PBMC, ELISA: IL-2; format: cell-based; conditions: Homo sapiens, anti-CD3 and anti-CD28 antibodies, 24-hr culture supernatant
Method: (A3) Anti-CD3/CD28 antibody-stimulated TNF α production inhibitory activity in human peripheral blood monocytes (PBMC)
[Method] Monocytes isolated from healthy adult male volunteers were cultured and stimulated with anti-CD3 and anti-CD28 antibodies and the amounts of TNF, INF, 1L-2, IL-4 and IL-10 in the 24-hr culture supernatant were determined by ELISA.

[2] = test system: mouse model of NC/NGa dermatitis; experiment: (B7) Atopy, Method 2: spontaneous atopic dermatitis model; format: in vivo; conditions: oral once daily for 17 consecutive days
Method: [Method 2] Spontaneous atopic dermatitis mode:
In the mouse model of NC/NGa dermatitis, the drug was administered orally once daily for 17 consecutive days.

[3] = test system: antigen-induced eosinophil infiltration in guinea pigs; experiment: (B8) Inhibitory effect on antigen-induced eosinophil infiltration in guinea pigs; format: in vivo, Hartley guinea pigs; conditions: oral 1 hour before the challenge; BAL 24 hours after challenge
Method: (B8) Inhibitory effect on antigen-induced eosinophil infiltration in guinea pigs
[Method] Male Hartley guinea pigs were sensitized by intravenous administration of guinea-pig anti-ovalbumin (OVA) antiserum. After 24 hours, an antigen challenge was performed by inhalation exposure to a nebulized 1% solution of OVA. At 24 hours after challenge with the antigen, the bronchial alveolar lavage (BAL) was collected and the number of eosinophils was determined using the eosinophil peroxidase activity in BAL as an indicator. The drug was administered orally 1 hour before the challenge. [Results]

[4] = physchem; conditions: thermodynamic from solid
[5] = test system: P. acnes/LPS-induced mouse hepatitis model; experiment: (B4) P. acnes/LPS-induced mouse hepatitis model; format: in vivo, ICR mice; conditions: oral, 9 hours after administration of the drug
Method: (B4) P. acnes/LPS-induced mouse hepatitis model
[Method] Propionibacterium acnes (P. acnes) killed by heat treatment was lyophilized and used in the experiment. To 7-week-old male ICR mice, either saline or P. acnes, 0.6 mg/0.2 ml/mouse, was administered intravenously. After 7 days, the drug or the solvent vehicle was administered orally in predetermined doses to the animals deprived of food for 20 hours. At. 9 hours after administration of the drug, the blood was drawn and the liver-derived enzymes (ALT and AST) in plasma were assayed.

[6] = test system: ConA (concanavalin A) -induced mouse hepatitis model; experiment: (B3) ConA (concanavalin A)-induced mouse hepatitis model; format: in vivo, Balb/c mice; conditions: 18 hours after ConA
Method: (B3) ConA (concanavalin A) -induced mouse hepatitis model
[Method] Male Balb/c mice aged 9 weeks were deprived of food for 20 hours and the drug or the solvent vehicle was administered orally in predetermined doses. After 1 hour, saline was administered intravenously to the NORMAL group and concanavalin A, 0.4 mg/mouse, was administered similarly to the CONTROL and DRUG groups. At 18 hours after administration of ConA, the blood was drawn and the liver isolated. Using the blood, the liver-derived enzymes (ALT and AST) in plasma were assayed. The liver was fixed in formalin and pathological specimens were prepared. Histopathological findings (inflammatory cell infiltration and liver cell necrosis) were evaluated.

In the case of `CS(=O)(=O)O.O.O.O=C(Nc1cccc(-n2c(=O)c(Cc3cccnc3)nc3cccnc32)c1)c1cc(Cl)cc(Cl)c1` [Example 2, 4-(3-(3,5-dichlorobenzoylamino)phenyl)-2-(3-pyridyl)methyl-3-oxo-3,4-dihydropyrido[2,3-b]pyrazine methanesulfonate dihydrate], the IC50 [1] is reported as 0.13 µM, the disease state-ameliorating effect [2] is reported as “significant disease state-ameliorating effect” and the “infiltration of eosinophils and other inflammatory cells into the bronchial alveola” value [3] is reported as “inhibited”. For the same compound, the solubility at 30 min ([4]; saline or isotonic) was 64.3 µg/mL, the solubility at 30 min ([4]; water) was 887 µg/mL and the “elevation of blood ALT” value [5] was “significantly inhibited”. For the same compound, the “elevation of blood AST” value [5] was “significantly inhibited”, the “elevation of blood ALT” value ([6]; oral 1 hour before ConA) was “significantly inhibited” and the “elevation of blood AST” value ([6]; oral 1 hour before ConA) was “significantly inhibited”. For the same compound, the inflammatory cell infiltration ([6]; oral, histopathology) was “inhibited” and the liver cell necrosis ([6]; oral, histopathology) was “inhibited”.
